Several values for one entry are separate records, joined by “and”; a condition that tells them apart may be missing. Equal entries are not always repeated. Structures can show the parent of a compound that is named as a salt. Where two headings read alike, the source gives them in different places.
Tested on: SOX2
Test: Screen of a library of FDA-approved drugs for SOX2 antibody staining in A375 cells treated with PLX4720 and AZD6244
Conditions: for cor. loess: normalized and geometry-corrected (loess) signal; for norm: signal after plate normalization
[1] = A375 cells, 5 uM test drug with 1 uM PLX4720 and 0.5 uM AZD6244, 24 h
[2] = A375 cells, 5 uM test drug with 1 uM PLX4720 and 0.5 uM AZD6244, 24 h, raw signal (ratio of FL2 SOX2 antibody and FL3 nuclear staining), screen run in duplicate
[3] = Z-test against negative controls (DMSO), single dose 5 uM

CC(=O)O[C@H]1C(=O)[C@@]2(C)[C@H]([C@H](OC(=O)c3ccccc3)[C@]3(O)C[C@H](OC(=O)[C@H](O)[C@@H](NC(=O)c4ccccc4)c4ccccc4)C(C)=C1C3(C)C)[C@]1(OC(C)=O)CO[C@@H]1C[C@@H]2O [PACLITAXEL]
cor. loess [1]: 0.341 | raw [2]: 0.9826 | norm [1]: 0.3501 | z [3]: 4.64

OC1(c2ccc(Cl)c(C(F)(F)F)c2)CCN(CCCC(c2ccc(F)cc2)c2ccc(F)cc2)CC1 [PENFLURIDOL]
cor. loess [1]: 2.248 | raw [2]: 0.9179 | norm [1]: 2.491 | z [3]: 30.59

C1CCC(C(CC2CCCCN2)C2CCCCC2)CC1 (centres unmarked) [PERHEXILINE MALEATE]
cor. loess [1]: 0.3464 | raw [2]: 0.9786 | norm [1]: 0.4809 | z [3]: 4.713

CCOC(=O)O[C@]1(C(=O)COC(=O)CC)CC[C@H]2[C@@H]3CCC4=CC(=O)C=C[C@]4(C)[C@H]3[C@@H](O)C[C@@]21C [PREDNICARBATE]
cor. loess [1]: 0.3992 | raw [2]: 0.9782 | norm [1]: 0.4403 | z [3]: 4.425

CC(=O)OCC(=O)[C@@]1(O)CC[C@H]2[C@@H]3CCC4=CC(=O)C=C[C@]4(C)[C@H]3[C@@H](O)C[C@@]21C [PREDNISOLONE ACETATE]
cor. loess [1]: 0.4697 | raw [2]: 0.9772 | norm [1]: 0.4997 | z [3]: 3.871

Nc1ccc2cc3ccc(N)cc3nc2c1 [PROFLAVINE HEMISULFATE]
cor. loess [1]: 0.3381 | raw [2]: 0.9828 | norm [1]: 0.2862 | z [3]: 3.749

C[C@@H]1O[C@@H](O[C@@H]2C=C3CC[C@@H]4[C@H](CC[C@]5(C)[C@@H](c6ccc(=O)oc6)CC[C@]45O)[C@@]3(C)CC2)[C@H](O)[C@H](O)[C@H]1O [PROSCILLARIDIN A]
cor. loess [1]: 0.5083 | raw [2]: 0.9787 | norm [1]: 0.4294 | z [3]: 3.007

[O-][n+]1ccccc1[S-].[O-][n+]1ccccc1[S-].[Zn+2] [PYRITHIONE ZINC]
raw: 0.8268 and 0.898 | z: 15.67 and 26.13

CCOc1cc2ncc(C#N)c(Nc3ccc(F)c(Cl)c3)c2cc1NC(=O)/C=C/CN(C)C [Pelitinib (EKB-569), Pelitinib]
cor. loess [1]: 0.7376 | raw [2]: 0.9677 | norm [1]: 0.828 | z [3]: 5.755

CC(C)COc1ccc(CNC(=O)N(Cc2ccc(F)cc2)C2CCN(C)CC2)cc1 [Pimavanserin]
cor. loess [1]: 0.7376 | raw [2]: 0.9689 | norm [1]: 0.7906 | z [3]: 5.755

Cc1ccc(C(=O)Nc2ccc(CN3CCN(C)CC3)c(C(F)(F)F)c2)cc1C#Cc1cnc2cccnn12 [Ponatinib (AP24534), Ponatinib]
cor. loess [1]: 0.6841 | raw [2]: 0.9701 | norm [1]: 0.7518 | z [3]: 5.338

CO[C@H]1/C=C/O[C@@]2(C)Oc3c(C)c(O)c4c(O)c(c(/C=N/N5CCN(C)CC5)c(O)c4c3C2=O)NC(=O)/C(C)=C\C=C\[C@H](C)[C@H](O)[C@@H](C)[C@@H](O)[C@@H](C)[C@H](OC(C)=O)[C@@H]1C [RIFAMPIN]
cor. loess [1]: 0.4025 | raw [2]: 0.9792 | norm [1]: 0.4925 | z [3]: 3.454

CN1CCN(c2c(F)cc3c(=O)c(C(=O)O)cn4c3c2SCC4)CC1 [RUFLOXACIN HYDROCHLORIDE]
cor. loess [1]: 0.3991 | raw [2]: 0.9796 | norm [1]: 0.4438 | z [3]: 4.267

Cc1cn(-c2cc(NC(=O)c3ccc(C)c(Nc4nccc(-c5cnccn5)n4)c3)cc(C(F)(F)F)c2)cn1 [Radotinib]
cor. loess [1]: 0.7186 | raw [2]: 0.9713 | norm [1]: 0.7194 | z [3]: 7.683

CN(C)Cc1ccc(S(=O)(=O)n2ccc(/C=C/C(=O)NO)c2)cc1 [Resminostat]
cor. loess [1]: 0.8 | raw [2]: 0.9656 | norm [1]: 0.8939 | z [3]: 6.242

O=C(CCCCCCNC(=O)c1cnc(N(c2ccccc2)c2ccccc2)nc1)NO [Rocihnostat (ACY-1215), Rocihnostat]
cor. loess [1]: 0.6577 | raw [2]: 0.9705 | norm [1]: 0.7378 | z [3]: 5.132

CC[C@@H](C(=O)[C@@H](C)[C@@H](O)[C@H](C)[C@@H]1O[C@@H]([C@@H](CC)C(=O)O)CC[C@@H]1C)[C@H]1O[C@]2(C=C[C@@H](O)[C@]3(CC[C@@](C)([C@H]4CC[C@](O)(CC)[C@H](C)O4)O3)O2)[C@H](C)C[C@@H]1C [SALINOMYCIN, SODIUM]
cor. loess [1]: 0.802 | raw [2]: 0.9671 | norm [1]: 0.8129 | z [3]: 8.891

CO[C@H]1C[C@H](O[C@@H]2/C(C)=C/C[C@@H]3C[C@@H](C[C@]4(CC[C@H](C)[C@@H](C5CCCCC5)O4)O3)OC(=O)[C@@H]3C=C(C)/C(=N/O)[C@H]4OC/C(=C\C=C\[C@@H]2C)[C@]43O)O[C@@H](C)[C@@H]1O [SELAMECTIN]
cor. loess [1]: 0.533 | raw [2]: 0.9768 | norm [1]: 0.5401 | z [3]: 7.251

CO[C@H]1C[C@@H]2CC[C@@H](C)[C@@](O)(O2)C(=O)C(=O)N2CCCC[C@H]2C(=O)O[C@H]([C@H](C)C[C@@H]2CC[C@@H](O)[C@H](OC)C2)CC(=O)[C@H](C)/C=C(\C)[C@@H](O)[C@@H](OC)C(=O)[C@H](C)C[C@H](C)/C=C/C=C/C=C/1C [SIROLIMUS]
cor. loess [1]: 0.3171 | raw [2]: 0.9808 | norm [1]: 0.4075 | z [3]: 4.314

CCN(CC)CCNC(=O)c1c(C)[nH]c(/C=C2\C(=O)Nc3ccc(F)cc32)c1C [Sunitinib]
cor. loess [1]: 0.5385 | raw [2]: 0.9775 | norm [1]: 0.514 | z [3]: 5.758

[H]/N=C(/NCCCCC)N/N=C/c1c[nH]c2ccc(OC)cc12 [TEGASEROD MALEATE]
cor. loess [1]: 0.2864 | raw [2]: 0.9849 | norm [1]: 0.2748 | z [3]: 3.897

COc1cc([C@@H]2c3cc4c(cc3[C@@H](O[C@@H]3O[C@@H]5CO[C@@H](c6cccs6)O[C@H]5[C@H](O)[C@H]3O)[C@H]3COC(=O)[C@H]23)OCO4)cc(OC)c1O [TENIPOSIDE]
cor. loess [1]: 0.6446 | raw [2]: 0.9667 | norm [1]: 0.8759 | z [3]: 8.769

CC(C)(C)c1ccc(C(O)CCCN2CCC(C(O)(c3ccccc3)c3ccccc3)CC2)cc1 (centres unmarked) [TERFENADINE]
cor. loess [1]: 0.2601 | norm [1]: 0.5459 | z [3]: 3.539

Cc1cnc(Nc2ccc(OCCN3CCCC3)cc2)nc1Nc1cccc(S(=O)(=O)NC(C)(C)C)c1 [TG101348 (SAR302503)]
cor. loess [1]: 1.471 | raw [2]: 0.9608 | norm [1]: 1.142 | z [3]: 5.665

C[CH2][Hg][S]c1ccccc1C(=O)[O-].[Na+] [THIMEROSAL]
raw: 0.9726 and 0.8663

Cc1cc2nc3ccc(N(C)C)cc3[s+]c2cc1N [TOLONIUM CHLORIDE]
cor. loess [1]: 0.7082 | raw [2]: 0.971 | norm [1]: 0.6829 | z [3]: 7.851

CC(=O)OCC(=O)[C@@]1(O)[C@H](OC(C)=O)C[C@H]2[C@@H]3CCC4=CC(=O)C=C[C@]4(C)[C@@]3(F)[C@@H](O)C[C@@]21C [TRIAMCINOLONE DIACETATE]
cor. loess [1]: 0.3964 | raw [2]: 0.9794 | norm [1]: 0.4506 | z [3]: 4.238

C[C@]12C=CC(=O)C=C1CC[C@H]1[C@@H]3C[C@@H](O)[C@](O)(C(=O)CO)[C@@]3(C)C[C@H](O)[C@@]12F [TRIAMCINOLONE]
cor. loess [1]: 0.4006 | raw [2]: 0.9821 | norm [1]: 0.3941 | z [3]: 3.438

Oc1cc(Cl)ccc1Oc1ccc(Cl)cc1Cl [TRICLOSAN]
cor. loess [1]: 0.531 | raw [2]: 0.9753 | norm [1]: 0.5438 | z [3]: 3.141

O=c1[nH]c(=O)n([C@H]2C[C@H](O)[C@@H](CO)O2)cc1C(F)(F)F [TRIFLURIDINE]
cor. loess [1]: 0.4387 | raw [2]: 0.9796 | norm [1]: 0.4485 | z [3]: 5.969

COc1ccc2cc1Oc1ccc(cc1)C[C@H]1c3cc(c(OC)cc3CCN1C)Oc1c(OC)c(OC)cc3c1[C@H](C2)N(C)CC3 [Tetrandrine]
cor. loess [1]: 1.018 | raw [2]: 0.9619 | norm [1]: 1.018 | z [3]: 7.2

O=C(CCCCCCC(=O)Nc1ccccc1)NO [VORINOSTAT]
cor. loess [1]: 0.9868 | raw [2]: 0.9634 | norm [1]: 0.984 | z [3]: 13.43

Cc1ccc(-c2nc3ccc(C)cn3c2CC(=O)N(C)C)cc1 [ZOLPIDEM]
cor. loess [1]: 0.2522 | raw [2]: 0.9798 | norm [1]: 0.4412 | z [3]: 3.432

ABAMECTIN [ABAMECTIN (avermectin B1a shown)]
cor. loess [1]: 0.4606 | raw [2]: 0.9779 | norm [1]: 0.5009 | z [3]: 4.925

Aprotinin
cor. loess [1]: 1.14 | raw [2]: 0.9662 | norm [1]: 0.9994 | z [3]: 4.093

GRAMICIDIN [GRAMICIDIN (gramicidin A shown)]
z: 4.938 | cor. loess [1]: 0.5992 | raw [2]: 0.9705 | norm [1]: 0.7289

HYDROCORTISONE HEMISUCCINATE
z: 3.809 | cor. loess [1]: 0.4622 | norm [1]: 0.507

IVERMECTIN
cor. loess [1]: 0.6358 | raw [2]: 0.9726 | norm [1]: 0.6393 | z [3]: 3.761

MONENSIN SODIUM
cor. loess [1]: 0.5359 | raw [2]: 0.9761 | norm [1]: 0.5968 | z [3]: 4.599

Reference: patent US20200325543A1, “DIAGNOSTIC METHOD” (TOLREMO THERAPEUTICS AG, priority 2017, published 2020)
